Entries after “also recorded” stand apart in the source; their conditions may differ.
Legend:
Format in all cases: in vivo, human
[1] = tested on: Cushing's syndrome patients; assay: Cushing's syndrome patient study: glucose control / hyperglycemia response; settings: for Fructosamine, IGT mean change from Baseline to Last Observed / HOMA-IR, IGT mean change from Baseline to Last Observed / AUCglucose mean change from Baseline to Last Observed / AUCinsulin mean change from Baseline to Last Observed: All Subjects
Excerpt: (§1) All patients gave informed consent before participating in any study-related procedures. […] The study protocol called for patient visits to the study site at screening, on Day 1 (baseline), Weeks 2, 4, 6, 8, 10, and 12, and after a 4-week follow-up period for Group 1. For Group 2, the protocol called for patient visits to the study site at screening, on Day 1 (baseline), Weeks 2, 4, 6, 8, 10, 12, 14, and 16, and after a 4-week follow-up period. Patient dosing will be done at home, except on days of study visits. Response criteria for hyperglycemia were changes from baseline in glucose tolerance as measured by: ≥0.5% decrease in HbA1c, normalization or ≥50 mg/dL decrease in 2-hr OGTT glucose, or decrease in total daily insulin (≥25%) or sulfonylurea dose (≥50%). Response criteria for hypertension (HTN) was a ≥5 mm Hg decrease in mean systolic and/or diastolic blood pressure (SBP/DBP). […] It ignores noncompliance, protocol deviations, withdrawal, and anything that happens after randomization. In contrast, per-protocol (PP) analysis refers to inclusion in the analysis of only those patients who strictly adhered to the protocol. The PP analysis provides an estimate of the true efficacy of an intervention, i.e., among those who completed the treatment as planned.

[2] = tested on: Cushing's syndrome patients; assay: Cushing's syndrome patient study: depression (BDI-II), Cushing QOL, cognitive tests; settings: All Subjects
Excerpt: as §1, with “visits.” for “visits. Response criteria for hyperglycemia were changes from baseline in glucose tolerance as measured by: ≥0.5% decrease in HbA1c, normalization or ≥50 mg/dL decrease in 2-hr OGTT glucose, or decrease in total daily insulin (≥25%) or sulfonylurea dose (≥50%). Response criteria for hypertension (HTN) was a ≥5 mm Hg decrease in mean systolic and/or diastolic blood pressure (SBP/DBP).”

[3] = tested on: Cushing's syndrome patients; assay: Cushing's syndrome patient study: bone markers; design: Serμm Bone Alkaline Phosphatase mean change from Baseline to Last Observed: unit not given here; settings: All Subjects
Excerpt: as §1, with “visits.” for “visits. Response criteria for hyperglycemia were changes from baseline in glucose tolerance as measured by: ≥0.5% decrease in HbA1c, normalization or ≥50 mg/dL decrease in 2-hr OGTT glucose, or decrease in total daily insulin (≥25%) or sulfonylurea dose (≥50%). Response criteria for hypertension (HTN) was a ≥5 mm Hg decrease in mean systolic and/or diastolic blood pressure (SBP/DBP).”

[4] = tested on: Cushing's syndrome patients; assay: Cushing's syndrome patient study: safety and adverse events
Excerpt: All patients gave informed consent before participating in any study-related procedures.
The safety protocol also included assessments by physical examination findings, vital signs, ECG results, pregnancy tests, clinical laboratory test results (hematology and chemistry panels), adverse events (AEs), and concomitant medications.

[5] = mITT, Group 1 (100-200 mg/day, 12 weeks)
[6] = mITT, Group 2 (250-400 mg/day, 16 weeks)
[7] = mPP, Group 1 (100-200 mg/day, 12 weeks)
[8] = mPP, Group 2 (250-400 mg/day, 16 weeks)

## Cn1cc(S(=O)(=O)N2CCC3=Cc4c(cnn4-c4ccc(F)cc4)C[C@]3(C(=O)c3cc(C(F)(F)F)ccn3)C2)cn1 [relacorilant, (R)-(1-(4-fluorophenyl)-6-((1-methyl-1H-pyrazol-4-yl)sulfonyl)-4,4a,5,6,7,8-hexahydro-1H-pyrazolo[3,4-g]isoquinolin-4a-yl) (4-(trifluoromethyl)pyridin-2-yl)methanone]
[1]; [5]
  Fructosamine, IGT mean change from Baseline to Last Observed: -6.85 µmol/L
  HOMA-IR, IGT mean change from Baseline to Last Observed: 0.05
  AUCglucose mean change from Baseline to Last Observed: -3.11 mmol·h/L
  AUCinsulin mean change from Baseline to Last Observed: −33.28 hr * μU/mL
[1]; [6]
  Fructosamine, IGT mean change from Baseline to Last Observed: -21.58 µmol/L
  HOMA-IR, IGT mean change from Baseline to Last Observed: −3.2
  AUCglucose mean change from Baseline to Last Observed: -0.8 mmol·h/L
  AUCinsulin mean change from Baseline to Last Observed: −32.26 hr * μU/mL
[1]; mITT, Overall
  Fructosamine, IGT mean change from Baseline to Last Observed: -13.92 µmol/L
  HOMA-IR, IGT mean change from Baseline to Last Observed: −1.58
  AUCglucose mean change from Baseline to Last Observed: -1.96 mmol·h/L
  AUCinsulin mean change from Baseline to Last Observed: −32.77 hr * μU/mL
[1]; [7]
  Fructosamine, IGT mean change from Baseline to Last Observed: -8.08 µmol/L
  HOMA-IR, IGT mean change from Baseline to Last Observed: 0.39
  AUCglucose mean change from Baseline to Last Observed: -3.63 mmol·h/L
  AUCinsulin mean change from Baseline to Last Observed: −38.79 hr * μU/mL
[1]; [8]
  Fructosamine, IGT mean change from Baseline to Last Observed: -18.92 µmol/L
  HOMA-IR, IGT mean change from Baseline to Last Observed: −3.28
  AUCglucose mean change from Baseline to Last Observed: -1.24 mmol·h/L
  AUCinsulin mean change from Baseline to Last Observed: −37.39 hr * μU/mL
[1]; mPP, Overall
  Fructosamine, IGT mean change from Baseline to Last Observed: -13.28 µmol/L
  HOMA-IR, IGT mean change from Baseline to Last Observed: −1.37
  AUCglucose mean change from Baseline to Last Observed: -2.48 mmol·h/L
  AUCinsulin mean change from Baseline to Last Observed: −38.12 hr * μU/mL
[1]; Cushing's syndrome patients
  AUCglucose in patients with hyperglycemia: statistically significant reduction
[1]; HD group (doses up to 400 mg), week 16
  hyperglycemia response rate: 50%
[1]; LD group (doses up to 200 mg), week 12
  hyperglycemia response rate: 15.4%
[1]; doses up to 400 mg
  patients with hyperglycaemia showing glycaemic improvement (responders/patients): 6/12
[2]; [5]
  BDI-II Total Score mean change from Baseline to Last Observed: −3.06
  Cushing QOL Score mean change from Baseline to Last Observed: 6.25
  Part A - Total Time to Complete T mean change from Baseline to Last Observed: −3.65
  Part B - Total Time to Complete T mean change from Baseline to Last Observed: −15.94
[2]; [6]
  BDI-II Total Score mean change from Baseline to Last Observed: −3.94
  Cushing QOL Score mean change from Baseline to Last Observed: 8.07
  Part A - Total Time to Complete T mean change from Baseline to Last Observed: −4.67
  Part B - Total Time to Complete T mean change from Baseline to Last Observed: −34.6
[2]; mITT, Overall
  BDI-II Total Score mean change from Baseline to Last Observed: −3.48
  Cushing QOL Score mean change from Baseline to Last Observed: 7.13
  Part A - Total Time to Complete T mean change from Baseline to Last Observed: −4.13
  Part B - Total Time to Complete T mean change from Baseline to Last Observed: −24.69
[2]; [7]
  BDI-II Total Score mean change from Baseline to Last Observed: −4.47
  Cushing QOL Score mean change from Baseline to Last Observed: 6.25
  Part A - Total Time to Complete T mean change from Baseline to Last Observed: −3.65
  Part B - Total Time to Complete T mean change from Baseline to Last Observed: −15.94
[2]; [8]
  BDI-II Total Score mean change from Baseline to Last Observed: −3.87
  Cushing QOL Score mean change from Baseline to Last Observed: 7.64
  Part A - Total Time to Complete T mean change from Baseline to Last Observed: −4.67
  Part B - Total Time to Complete T mean change from Baseline to Last Observed: −34.6
[2]; mPP, Overall
  BDI-II Total Score mean change from Baseline to Last Observed: −4.19
  Cushing QOL Score mean change from Baseline to Last Observed: 6.9
  Part A - Total Time to Complete T mean change from Baseline to Last Observed: −4.13
  Part B - Total Time to Complete T mean change from Baseline to Last Observed: −24.69
[3]; [5]
  Serμm Bone Alkaline Phosphatase mean change from Baseline to Last Observed: 1.82
  Serμm Osteocalcin mean change from Baseline to Last Observed: 4.57 µg/L
  Urinary NTx mean change from Baseline to Last Observed: 2.21 nmolBCE/mmol
[3]; [6]
  Serμm Bone Alkaline Phosphatase mean change from Baseline to Last Observed: −1.09
  Serμm Osteocalcin mean change from Baseline to Last Observed: 1.33 µg/L
  Urinary NTx mean change from Baseline to Last Observed: 0.63 nmolBCE/mmol
[3]; mITT, Overall
  Serμm Bone Alkaline Phosphatase mean change from Baseline to Last Observed: 0.41
  Serμm Osteocalcin mean change from Baseline to Last Observed: 3 µg/L
  Urinary NTx mean change from Baseline to Last Observed: 1.37 nmolBCE/mmol
[3]; [7]
  Serμm Bone Alkaline Phosphatase mean change from Baseline to Last Observed: 1.82
  Serμm Osteocalcin mean change from Baseline to Last Observed: 4.68 µg/L
  Urinary NTx mean change from Baseline to Last Observed: 2.21 nmolBCE/mmol
[3]; [8]
  Serμm Bone Alkaline Phosphatase mean change from Baseline to Last Observed: −1.09
  Serμm Osteocalcin mean change from Baseline to Last Observed: 1.33 µg/L
  Urinary NTx mean change from Baseline to Last Observed: 0.63 nmolBCE/mmol
[3]; mPP, Overall
  Serμm Bone Alkaline Phosphatase mean change from Baseline to Last Observed: 0.41
  Serμm Osteocalcin mean change from Baseline to Last Observed: 3.06 µg/L
  Urinary NTx mean change from Baseline to Last Observed: 1.37 nmolBCE/mmol
[4]; Cushing's syndrome patients
  adverse effects of progesterone receptor antagonism: no adverse effects of progesterone receptor antagonism
  drug induced hypokalemia: none of the patients suffered hypokalemia; also recorded: without any episodes of drug induced hypokalemia; also recorded: no patients developed drug induced hypokalemia; also recorded: no reported instances
  drug induced vaginal bleeding: No drug-induced hypokalemia or vaginal bleeding; also recorded: no cases of drug induced vaginal bleeding; also recorded: no reported instances
  drug-related serious adverse events: no drug-related serious adverse events
  most common treatment-emergent adverse events (TEAEs): back pain, edema, headache, and nausea
[4]; Cushing's syndrome patients, up to 400 mg/day
  tolerability: generally well tolerated
[4]; all from the HD group
  serious TEAEs: Five serious TEAEs were reported in 4 patients
[4]; one patient previously treated with mifepristone, during treatment with relacorilant
  endometrial hypertrophy developed on previous mifepristone: completely resolved
[4]; patients with endogenous Cushing syndrome
  safety profile compared with mifepristone: significantly better
